According to patent US10344049B2, “Substituted steroids for the treatment of cancer” (AQUAVAN TECHNOLOGY CO., LTD., priority 2017, dated 2019):
Like-named read-outs stand apart in the source and are kept apart here.

Experiments:
Type in all cases: cell-based
[1] = tested on: human breast cancer cells MDA-MB-231; assay: Cell viability test (Resazurin), MDA-MB-231 cells; set-up: evaluation of ability to inhibit cell growth activity (IC50): scale not given here
Description: (§1) Cell viability was determined with Resazurin (at a final concentration of 25 μg/mL).

[2] = tested on: human Glioblastoma cells U87-MG; assay: Cell viability test (Resazurin), U87-MG cells; set-up: evaluation of ability to inhibit cell growth activity (IC50): scale not given here; conditions: for evaluation of ability to inhibit cell growth activity (IC50): grade of the IC50 of Table 2
Description: as §1

[3] = tested on: human leukemia cells U937; assay: Cell viability test (Resazurin), U937 cells
Description: as §1

[4] = tested on: human colorectal cancer cells SW-480; assay: Cell viability test (Resazurin), SW480 cells; set-up: evaluation of ability to inhibit cell growth activity (IC50): scale not given here
Description: as §1

[5] = tested on: human breast cancer cells MDA-MB-468; assay: Cell viability test (Resazurin), MDA-MB-468 cells
Description: as §1

[6] = tested on: human liver cancer cells Mahlavu; assay: Cell viability test (Resazurin), Mahlavu cells; conditions: for evaluation of ability to inhibit cell growth activity (IC50): grade of the IC50 of Table 2
Description: as §1

[7] = tested on: human lung cancer cells A549; assay: Cell viability test (Resazurin), A549 cells; set-up: evaluation of ability to inhibit cell growth activity (IC50): scale not given here
Description: as §1

[8] = tested on: African green monkey kidney cells Vero; assay: Cell viability test (Resazurin), Vero cells
Description: as §1

[9] = Homo sapiens, MDA-MB-231, 48 h, MDA-MB-231 cells, 48 hours, 0.1% FCS, Resazurin, read-out: inhibitory concentrations of cell growth activity IC50
[10] = Homo sapiens, MDA-MB-231, MDA-MB-231 cells, grade of the IC50 of Table 2, read-out: evaluation of ability to inhibit cell growth activity (IC50)
[11] = Homo sapiens, U-87 MG, 48 h, 0.1% FCS, Resazurin, read-out: inhibitory concentrations of cell growth activity IC50
[12] = Homo sapiens, U-87 MG, grade of the IC50 of Table 2, read-out: evaluation of ability to inhibit cell growth activity (IC50)
[13] = Homo sapiens, U-937, 48 h, U937 cells, 48 hours, 0.1% FCS, Resazurin, read-out: inhibitory concentrations of cell growth activity IC50
[14] = Homo sapiens, U-937, U937 cells, grade of the IC50 of Table 2, read-out: evaluation of ability to inhibit cell growth activity (IC50)
[15] = Homo sapiens, SW480, 48 h, SW480 cells, 48 hours, 0.1% FCS, Resazurin, read-out: inhibitory concentrations of cell growth activity IC50
[16] = Homo sapiens, SW480, SW480 cells, grade of the IC50 of Table 2, read-out: evaluation of ability to inhibit cell growth activity (IC50)
[17] = Homo sapiens, MDA-MB-468, 48 h, MDA-MB-468 cells, 48 hours, 0.1% FCS, Resazurin, read-out: inhibitory concentrations of cell growth activity IC50
[18] = Homo sapiens, MDA-MB-468, MDA-MB-468 cells, grade of the IC50 of Table 2, read-out: evaluation of ability to inhibit cell growth activity (IC50)
[19] = Homo sapiens, Mahlavu, 48 h, 0.1% FCS, Resazurin, read-out: inhibitory concentrations of cell growth activity IC50
[20] = Homo sapiens, Mahlavu, grade of the IC50 of Table 2, read-out: evaluation of ability to inhibit cell growth activity (IC50)
[21] = Homo sapiens, A549, 48 h, A549 cells, 48 hours, 0.1% FCS, Resazurin, read-out: inhibitory concentrations of cell growth activity IC50
[22] = Homo sapiens, A549, A549 cells, grade of the IC50 of Table 2, read-out: evaluation of ability to inhibit cell growth activity (IC50)
[23] = Chlorocebus sabaeus, Vero, 48 h, 0.1% FCS, Resazurin, read-out: inhibitory concentrations of cell growth activity IC50
[24] = Chlorocebus sabaeus, Vero, grade of the IC50 of Table 2, read-out: evaluation of ability to inhibit cell growth activity (IC50)
[25] = SW480 cells, grade of the IC50 of Table 2
[26] = MDA-MB-468 cells, grade of the IC50 of Table 2
[27] = A549 cells, grade of the IC50 of Table 2
[28] = MDA-MB-231 cells, grade of the IC50 of Table 2
[29] = U937 cells, grade of the IC50 of Table 2
[30] = 48 hours, 0.1% FCS, Resazurin, read-out: inhibitory concentrations of cell growth activity IC50
[31] = grade of the IC50 of Table 2, read-out: evaluation of ability to inhibit cell growth activity (IC50)

| Structure (SMILES) | IC50 [1, 9] [µM] | IC50 [1, 10] [µM] | IC50 [2, 11] [µM] | IC50 [2, 12] [µM] | IC50 [3, 13] [µM] | IC50 [3, 14] [µM] | IC50 [4, 15] [µM] | IC50 [4, 16] [µM] | IC50 [5, 17] [µM] | IC50 [5, 18] [µM] | IC50 [6, 19] [µM] | IC50 [6, 20] [µM] | IC50 [7, 21] [µM] | IC50 [7, 22] [µM] | IC50 [8, 23] [µM] | IC50 [8, 24] [µM] | evaluation of ability to inhibit cell growth activity (IC50) [4, 25] | evaluation of ability to inhibit cell growth activity (IC50) [6] | evaluation of ability to inhibit cell growth activity (IC50) [5, 26] | evaluation of ability to inhibit cell growth activity (IC50) [2] | also measured |
| --- | --- | --- | --- | --- | --- | --- | --- | --- | --- | --- | --- | --- | --- | --- | --- | --- | --- | --- | --- | --- | --- |
| C[C@H](C/C=C/C(C)(C)O)[C@H]1CC[C@@]2(C)[C@@H]3[C@@H](O)C=C4[C@@H](CC[C@H](O)C4(C)C)[C@]3(C=O)CC[C@]12C [Compound 1] | > 256 | > 256 | 150 | 64 to 256 | 36.6 | 16 to 64 | > 256 | > 256 | > 256 | > 256 | > 256 | > 256 | > 256 | > 256 | > 256 | > 256 |  |  |  |  |  |
| CC(C)=C[C@H](O)C[C@@H](C)[C@H]1CC[C@@]2(C)[C@@H]3[C@@H](O)C=C4[C@@H](CC[C@H](O)C4(C)C)[C@]3(C=O)CC[C@]12C [Compound 2] | 4.44 | < 8 | 7.52 | < 8 | 0.05 | < 8 | 13.1 | 8 to 16 | 7.25 | < 8 | 11.3 | 8 to 16 | 4.16 | < 8 | 12.8 |  | ◯ | ◯ |  |  | evaluation of ability to inhibit cell growth activity (IC50) ([8]; grade of the IC50 of Table 2): ◯ |
| CC(=O)O[C@H]1C=C2[C@@H](CC[C@H](OC(C)=O)C2(C)C)[C@]2(C=O)CC[C@]3(C)[C@@H]([C@H](C)C[C@H](C=C(C)C)OC(C)=O)CC[C@@]3(C)[C@H]12 [Compound 3] | 5.2 | < 8 | 6.82 | < 8 | 3.45 | < 8 | 18.2 | 16 to 64 | 10.4 | 8 to 16 | 23 | 16 to 64 | 12.2 | 8 to 16 | > 256 | > 256 |  |  | ◯ |  | evaluation of ability to inhibit cell growth activity (IC50) [7, 27]: ◯ |
| CC(=O)O[C@H]1C=C2[C@@H](CC[C@H](OC(C)=O)C2(C)C)[C@]2(C=O)CC[C@]3(C)[C@@H]([C@H](C)C/C=C/C(C)(C)O)CC[C@@]3(C)[C@H]12 [Compound 4] | 12.1 | 8 to 16 | 14.4 | 8 to 16 | 8.08 | 8 to 16 | 13 | 8 to 16 | 18.6 | 16 to 64 | 29.4 | 16 to 64 | 12.9 | 8 to 16 | 35.3 | 16 to 64 | ◯ |  |  | ◯ | evaluation of ability to inhibit cell growth activity (IC50) [1, 28]: ◯; evaluation of ability to inhibit cell growth activity (IC50) [3, 29]: ◯; evaluation of ability to inhibit cell growth activity (IC50) [7, 27]: ◯ |
| CC(=O)O[C@H]1C=C2[C@@H](CC[C@H](OC(C)=O)C2(C)C)[C@]2(C=O)CC[C@]3(C)[C@@H]([C@H](C)C[C@@H](O)C=C(C)C)CC[C@@]3(C)[C@H]12 [Compound 5] | 8.07 | 8 to 16 | 8.8 | 8 to 16 | 3.67 | < 8 | 16.4 | 16 to 64 | 16.8 | 16 to 64 | 18.5 | 16 to 64 | 12 | 8 to 16 | 25.3 | 16 to 64 |  |  |  | ◯ | evaluation of ability to inhibit cell growth activity (IC50) [1, 28]: ◯; evaluation of ability to inhibit cell growth activity (IC50) [7, 27]: ◯ |
| CC(=O)O[C@H]1CC[C@@H]2C(=C[C@H](O)[C@@H]3[C@@]2(C=O)CC[C@]2(C)[C@@H]([C@H](C)C[C@H](C=C(C)C)OC(C)=O)CC[C@@]32C)C1(C)C [Compound 6] | 23.5 | 16 to 64 | 23.4 | 16 to 64 | 1.57 | < 8 | 14.9 | 8 to 16 | 14 | 8 to 16 | 16.2 | 16 to 64 | 5.43 | < 8 | 23.1 | 16 to 64 | ◯ |  | ◯ |  |  |
| CC(=O)O[C@H]1C=C2[C@@H](CC[C@H](O)C2(C)C)[C@]2(C=O)CC[C@]3(C)[C@@H]([C@H](C)C[C@H](C=C(C)C)OC(C)=O)CC[C@@]3(C)[C@H]12 [Compound 7] | 6 | < 8 | 8.51 | 8 to 16 | 5.52 | < 8 | 13.5 | 8 to 16 | 13.9 | 8 to 16 | 11.9 | 8 to 16 | 6.26 | < 8 | 23.2 | 16 to 64 | ◯ | ◯ | ◯ | ◯ |  |
| CC(=O)O[C@H]1C=C2[C@@H](CC[C@H](O)C2(C)C)[C@]2(C=O)CC[C@]3(C)[C@@H]([C@H](C)C[C@@H](O)C=C(C)C)CC[C@@]3(C)[C@H]12 [Compound 8] |  |  |  |  |  |  |  |  |  |  |  |  |  |  |  |  | ◯ | ◯ | ◯ |  | IC50 ([1]; MDA-MB-231 cells, 48 hours, 0.1% FCS, Resazurin, read-out: inhibitory concentrations of cell growth activity IC50): 5.19 µM; IC50 ([1]; MDA-MB-231 cells, grade of the IC50 of Table 2, read-out: evaluation of ability to inhibit cell growth activity (IC50)): < 8 µM; IC50 [2, 30]: 7.54 µM; IC50 [2, 31]: < 8 µM; IC50 ([3]; U937 cells, 48 hours, 0.1% FCS, Resazurin, read-out: inhibitory concentrations of cell growth activity IC50): 5.39 µM; IC50 ([3]; U937 cells, grade of the IC50 of Table 2, read-out: evaluation of ability to inhibit cell growth activity (IC50)): < 8 µM; IC50 ([4]; SW480 cells, 48 hours, 0.1% FCS, Resazurin, read-out: inhibitory concentrations of cell growth activity IC50): 13.8 µM; IC50 ([5]; MDA-MB-468 cells, 48 hours, 0.1% FCS, Resazurin, read-out: inhibitory concentrations of cell growth activity IC50): 9.81 µM; IC50 [6, 30]: 11.5 µM; IC50 ([7]; A549 cells, 48 hours, 0.1% FCS, Resazurin, read-out: inhibitory concentrations of cell growth activity IC50): 4.86 µM; IC50 ([7]; A549 cells, grade of the IC50 of Table 2, read-out: evaluation of ability to inhibit cell growth activity (IC50)): < 8 µM; IC50 [8, 30]: 24.2 µM; IC50 [8, 31]: 16 to 64 µM |
| CC(=O)O[C@H]1C=C2[C@@H](CC[C@H](O)C2(C)C)[C@]2(C=O)CC[C@]3(C)[C@@H]([C@H](C)C/C=C/C(C)(C)O)CC[C@@]3(C)[C@H]12 [Compound 9] | 18.3 | 16 to 64 | 15.6 | 8 to 16 | 11.2 | 8 to 16 | 31.8 | 16 to 64 | 26.8 | 16 to 64 | 5.07 | < 8 | 24.4 | 16 to 64 | 25.9 | 16 to 64 |  |  |  | ◯ | evaluation of ability to inhibit cell growth activity (IC50) [3, 29]: ◯ |
